# Patent US20260347319A1, “YAP/TAZ-TEAD ONCOPROTEINS INHIBITORS” (BridGene Biosciences, Inc., priority 2022, published 2026)
# System: TEAD1
# Experiment: MCF-7 TEAD1-luciferase reporter assay (MCF7-TEAD-Luc)
# Assay type: cell-based
# Details: MCF7 cells, overnight; for IC50: Homo sapiens; for TEAD1-Luc MCF7: Max Inhibition: % of DMSO-treated control
# Protocol: The ability of compounds to inhibit TEAD-dependent transcription was assessed in the MCF7-TEAD-Luc reporter assay (BPS #60618). Cells were seeded at 10,000 cells in 200 μL per well into white wall, clear bottom 96-well plates (Corning #3610) and incubated at 37° C. for 24 hours, then treated with serial diluted compounds overnight, and luciferase signal was measured using the ONE-Step Luciferase Assay System (BPS #60690) using an EnSight Multimode plate reader (PerkinElmer, model #MLDHH34000000, integration time 100 ms) with Kaleido 3.0. software. For data analysis, dose-dependent curves were plotted as “% inhibition” (% of DMSO-treated control wells), and were fitted by four-parametric model in GraphPad Prism to obtain IC50 values.
Compound,IC50 [nM],TEAD1-Luc MCF7: Max Inhibition
"C=CC(=O)N1CC(/C=C/c2ccc(C(F)(F)F)cc2)C(C)(C)C1 (single isomer, unassigned) [Example 33]",100 to 500,A (A ≥ 75%)
"C=CC(=O)N1CC[C@@](C)(/C=C/c2ccc(C(F)(F)F)cc2)C1 (single isomer, unassigned) [Example 29, 1-[(3S*)-3-methyl-3-{2-[4-(trifluoromethyl)phenyl]ethenyl}pyrrolidin-1-yl]prop-2-en-1-one]",10 to 100,A (A ≥ 75%)
C=CC(=O)N1CC(/C=C/c2ccc(C(F)(F)F)cc2)(OC)C1 [Example 17],≤ 10,B (75% > B ≥ 50%)
"C=CC(=O)N1CC2(CCC(/C=C\c3cc(C(F)(F)F)on3)CC2)C1 [Example 25, 1-{7-[(Z)-2-[5-(trifluoromethyl)-1,2-oxazol-3-yl]ethenyl]-2-azaspiro[3.5]nonan-2-yl}prop-2-en-1-one]",100 to 500,B (75% > B ≥ 50%)
"C=CC(=O)N1CC[C@H](/C=C/c2cccc(C(F)(F)F)c2)C1 (single isomer, unassigned) [Example 43, (R*,E)-1-(3-(3-(trifluoromethyl)styryl)pyrrolidin-1-yl)prop-2-en-1-one]",100 to 500,B (75% > B ≥ 50%)
C=CC(=O)N1CC(C#N)(/C=C/c2ccc(C(F)(F)F)cc2)C1 [Example 37],10 to 100,A (A ≥ 75%)
"C=CC(=O)N1CC2(CCC(/C=C/c3cc(C(F)(F)F)on3)CC2)C1 [Example 24, 1-{7-[(E)-2-[5-(trifluoromethyl)-1,2-oxazol-3-yl]ethenyl]-2-azaspiro[3.5]nonan-2-yl}prop-2-en-1-one]",> 500,C (50% > C ≥ 2%)

# Further lines, with some results ahead:
IC50 [nM],Compound,TEAD1-Luc MCF7: Max Inhibition
10 to 100,"C=CC(=O)N1CC[C@H](C#Cc2ccc(C(F)(F)F)cc2)C1 (single isomer, unassigned) [Example 66, (R*)-1-(3-((4-(trifluoromethyl)phenyl)ethynyl)pyrrolidin-1-yl)prop-2-en-1-one]",A (A ≥ 75%)
10 to 100,"C=CC(=O)N1CC[C@@H](/C=C/Cc2ccc(C(F)(F)F)cc2)C1 (single isomer, unassigned) [Example 93]",B (75% > B ≥ 50%)
100 to 500,"C=CC(=O)N1CCC2(C=C(c3ccc(C(F)(F)F)cc3)CO2)C1 (single isomer, unassigned) [Example 97, 1-(3-(4-(trifluoromethyl)phenyl)-1-oxa-7-azaspiro[4.4]non-3-en-7-yl)prop-2-en-1-one]",C (50% > C ≥ 2%)
≤ 10,"C=CC(=O)N1CCC(/C=C/Cc2ccc(C(F)(F)F)cc2)C1 (single isomer, unassigned) [Example 88, (E)-1-(3-(3-(4-(trifluoromethyl)phenyl)prop-1-en-1-yl)pyrrolidin-1-yl)prop-2-en-1-one]",B (75% > B ≥ 50%)
10 to 100,"C=CC(=O)N1CCC(/C=C\C(O)c2ccc(C(F)(F)F)cc2)C1 (stereo not shown) [Example 100, (Z)-1-(3-(3-hydroxy-3-(4-(trifluoromethyl)phenyl)prop-1-en-1-yl)pyrrolidin-1-yl)prop-2-en-1-one]",B (75% > B ≥ 50%)
10 to 100,"C=CC(=O)N1CCC2(CC=C(c3ccc(C(F)(F)F)cc3)C2)C1 (single isomer, unassigned) [Example 96, 1-(7-(4-(trifluoromethyl)phenyl)-2-azaspiro[4.4]non-7-en-2-yl) prop-2-en-1-one]",B (75% > B ≥ 50%)
10 to 100,"C=CC(=O)N1CC2(CC=C(c3ccc(C(F)(F)F)cc3)CC2)C1 [Example 46, 1-(7-(4-(trifluoromethyl)phenyl)-2-azaspiro[3.5]non-6-en-2-yl)prop-2-en-1-one]",B (75% > B ≥ 50%)
